Assay results: patent publication US20250002695A1, “COMPOSITIONS COMPRISING CATIONIC ALPHA-1,6-GLUCAN DERIVATIVE AND ALPHA-1,3-GLUCAN” (Nutrition & Biosciences USA 4, Inc., priority 2021, published 2025)
Values after ≈ are worked out from the molar mass of the structure shown. Where two headings read alike, the source gives them in different places.

Columns and labels:
Test in all cases: Minimum Inhibitory Concentration (MIC) test
Assay type in all cases: cell-based
[1] = test system: Aspergillus brasiliensis (ATCC 16404); settings: ATCC16404, 168 h, read-out: Minimum Inhibitory Concentration
Description: (§1) Antimicrobial activity assessment of alpha-1,6-glucan ether compounds herein and other compounds were carried out using a standard MIC protocol. Each test compound was evaluated in two sets, one at 50-5000 ppm (high MIC actives) and the other at 3.125-100 ppm (low MIC actives). All active samples, with the exception of chitosan, were dissolved in DI water at a concentration of 1% w/v for the […] set; chitosan was instead dissolved in water acidified to pH 3.5 with hydrochloric acid. Each test compound was then serially diluted to concentrations of 0.4%, 0.2%, 0.1%, 0.04%, 0.02% and 0.01% (w/v). For the 3.125-100 ppm set, all test compounds were prepared similarly at a concentration 0.1% w/v, and then serially diluted to concentrations of 0.05%, 0.025%, 0.0125%, 0.00625% and 0.003125% (w/v). Bacteria inocula were prepared by diluting overnight cultures 1:20 in trypticase soy broth media (TSB). Yeast and mold were prepared by diluting overnight culture or monthly stock (1×10^8 cells per mL) 1:20 in potato dextrose broth media (PDB). 96-well plates were used in this test. First, 180 μL of plating media was added to each well. Next, each well received 20 μL water (control) or test compound at a specified concentration according to concentration range to be tested. Each sample was tested in triplicate. Lastly, each well received 20 μL of bacteria or fungi inoculum. Bacterial plates were incubated at 30° C. for 24 hours. Yeast and mold plates were incubated at 25° C.; yeast plates were incubated for 24 hours and mold plates were incubated for 7 days.

[2] = test system: Burkholderia cepacia (ATCC 25416); settings: read-out: Minimum Inhibitory Concentration
Description: as §1

[3] = test system: Candida albicans (ATCC 10231); settings: read-out: Minimum Inhibitory Concentration
Description: as §1

[4] = test system: Enterobacter gergoviae (ATCC 33028); settings: Pluralibacter gergoviae, read-out: Minimum Inhibitory Concentration
Description: as §1

[5] = test system: Escherichia coli (ATCC 8739); settings: read-out: Minimum Inhibitory Concentration
Description: as §1

[6] = test system: Klebsiella pneumoniae (ATCC 13883); settings: read-out: Minimum Inhibitory Concentration
Description: as §1

[7] = test system: Pseudomonas aeruginosa (ATCC 15442); settings: read-out: Minimum Inhibitory Concentration
Description: as §1

[8] = test system: Pseudomonas aeruginosa (ATCC 9027); settings: read-out: Minimum Inhibitory Concentration
Description: as §1

[9] = test system: Pseudomonas putida (ATCC 49128); settings: read-out: Minimum Inhibitory Concentration
Description: as §1

[10] = test system: Staphylococcus aureus (ATCC 6538); settings: read-out: Minimum Inhibitory Concentration
Description: as §1

[11] = test system: Staphylococcus epidermidis (ATCC 12228); settings: read-out: Minimum Inhibitory Concentration
Description: as §1

Molecule `CCCCCCCCCCCC[N+](C)(C)C.[Cl-]` [Comp. 11, Dodecyltrimethylammonium chloride] has an MIC [1] of 1000 µg/mL, an MIC ([2]; ATCC25416, 24 h) of 1000 µg/mL and an MIC ([3]; ATCC10231, 24 h) of 200 µg/mL. It also gave an MIC ([4]; ATCC33028, 24 h) of 500 µg/mL, an MIC ([5]; ATCC8739, 24 h) of 200 µg/mL and an MIC ([6]; ATCC13883, 24 h) of 500 µg/mL. For the same molecule, the MIC ([7]; ATCC15442, 24 h) was 500 µg/mL, the MIC ([8]; ATCC9027, 24 h) was 500 µg/mL and the MIC ([9]; ATCC49128, 24 h) was 500 µg/mL. It also gave an MIC ([10]; ATCC6538, 24 h) of 200 µg/mL and an MIC ([11]; ATCC12228, 24 h) of 100 µg/mL.

Molecule `CCCCCCCCCCCC(=O)N[C@@H](CCCNC(=N)N)C(=O)OCC` [Comp. 13, Lauroyl arginine ethyl ester] has an MIC ([1]; A. brasiliensis ATCC 16404, 25° C., 7 days) of 100 µg/mL (≈ 260 µM), an MIC ([2]; ATCC25416, B. cepacia ATCC 25416, 30° C., 24 hours) of 100 µg/mL (≈ 260 µM) and an MIC ([3]; ATCC10231, C. albicans ATCC 10231, 25° C., 24 hours) of 100 µg/mL (≈ 260 µM). For the same molecule, the MIC ([4]; ATCC33028, E. gergoviae ATCC 33028, 30° C., 24 hours) was 100 µg/mL (≈ 260 µM), the MIC ([5]; ATCC8739, E. coli ATCC 8739, 30° C., 24 hours) was 50 µg/mL (≈ 130 µM) and the MIC ([6]; ATCC13883, K. pneumoniae ATCC 13883, 30° C., 24 hours) was 50 µg/mL (≈ 130 µM). The MIC ([7]; ATCC15442, P. aeruginosa ATCC 15442, 30° C., 24 hours) was 50 µg/mL (≈ 130 µM), the MIC ([8]; ATCC9027, P. aeruginosa ATCC 9027, 30° C., 24 hours) was 50 µg/mL (≈ 130 µM) and the MIC ([9]; ATCC49128, P. putida ATCC 49128, 30° C., 24 hours) was 25 µg/mL (≈ 65 µM). For the same molecule, the MIC ([10]; ATCC6538, S. aureus ATCC 6538, 30° C., 24 hours) was 12.5 µg/mL (≈ 32.5 µM) and the MIC ([11]; ATCC12228, S. epidermidis ATCC 12228, 30° C., 24 hours) was 12.5 µg/mL (≈ 32.5 µM).
